Read-outs that look alike come from different tables or passages of the source.
Tests used:
Format in all cases: in vivo
[1] = system: Puccinia recondita on wheat; assay: Greenhouse trial, 4 day residual, Puccinia recondita on wheat; details: Puccinia recondita, 96 h, read-out: Observed Efficacy; for pest or weed control at 4 ppm: dose rate 4 ppm; for pest or weed control at 16 ppm: dose rate 16 ppm; for pest or weed control at 64 ppm: dose rate 64 ppm; for pest or weed control at 256 ppm: dose rate 256 ppm; for pest or weed control at 0.4 ppm: dose rate 0.4 ppm; for pest or weed control at 2 ppm: dose rate 2 ppm; for pest or weed control at 10 ppm: dose rate 10 ppm; for pest or weed control at 50 ppm: dose rate 50 ppm
How it was run: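 Wheat plants sprayed at primary-leaf stage with compounds, alone or in mixtures, in 5% acetone/0.05% Tween 20 water, then inoculated 4 days later with Puccinia recondita spore suspension and held 1-2 days in a moist chamber. Percent diseased leaf area scored about 7 days post-inoculation, excluding leaf tips and bases; efficacy calculated, synergy by Colby.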

[2] = system: Erysiphe cichoracearum on cucumbers; assay: Greenhouse trial, 4 day residual, Erysiphe cichoracearum on cucumbers; details: Golovinomyces cichoracearum, 96 h, read-out: Observed Efficacy; for pest or weed control at 0.4 ppm: dose rate 0.4 ppm; for pest or weed control at 2 ppm: dose rate 2 ppm; for pest or weed control at 10 ppm: dose rate 10 ppm; for pest or weed control at 50 ppm: dose rate 50 ppm
How it was run: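 Cucumber plants were sprayed to near run-off with compounds or mixtures (5% acetone/0.05% Tween 20 aqueous). Four days later they were inoculated by dusting with Erysiphe cichoracearum conidia. Percent diseased leaf area was assessed about 7 days after inoculation, and efficacy and Colby synergy were calculated from it.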

[3] = system: Uncinula necator on vines; assay: Greenhouse trial, 1 day residual, Uncinula necator on vines; details: Table XVIII, compound alone
Protocol: (§1) The trials are carried out under greenhouse (Examples 1 to 18) or field conditions (Example 19) in residual or curative applications. The fungicides are applied in single treatments, or in a combination comprising a benzophenone of formula I and a compound selected from (A) through (E) as defined above. The compounds are applied in form of an aqueous spray mix obtained from a concentrated formulation or the technical material.
(§2) 1. Seed is planted in 6 cm diameter plastic pots and maintained in the greenhouse.
(§3) 2. When the primary leaf is fully expanded (in the case of cereals) or several leaves are present (in the case of dicots), formulated test compounds are sprayed with a three nozzle overhead fungicide sprayer to near run-off. Alternatively, a single nozzle overhead track sprayer is used for application of the compounds to cereals at a rate of 200 liters/ha (l/ha). Plants are then allowed to air-dry.
(§4) 3. Inoculation precedes treatment in the case of curative evaluations and follows treatment in case of residual evaluations. For inoculation of powdery mildew disease, plants are set up on greenhouse benches with bottom watering mats and inoculated by dusting them with conidia from infected plants. Between inoculation and treatment for curative evaluations and between treatment and inoculation for residual evaluations, plants are maintained in the greenhouse with bottom watering. For inoculation of non-powdery mildew diseases, an aqueous spore suspension of the pathogen is applied to the plant and the plants are kept 1-2 days in a moist infection chamber before being returned to the greenhouse where they are maintained by bottom watering.
(§5) 4. Disease on the foliage as percent leaf area with disease symptoms/signs is evaluated about 7 days after inoculation. In the case of wheat, the tips and bases of the leaves are excluded from the evaluation. [formula]
(§6) 1. Technical compounds are formulated in a solvent/surfactant system consisting of 5% acetone and 0.05% Tween 20 in deionized water. Compounds are dissolved in acetone prior to addition of the water; the Tween 20 can be added through either the acetone or the water. Dilutions are made using the solvent/surfactant system. Formulated compounds are prepared using deionized water.
(§7) Assessments of the diseases took place at the indicated day after the application of the compounds. Per cent infected leaf area infected was evaluated. The efficacy of the compounds/compounds mixtures to control the diseases was calculated by using the formula given above under item 4: […]
(§8) Synergy of a fungicide mixture was determined by comparing the actual (observed) fungicidal activity of the mixture to the expected fungicidal activity of the mixture as calculated using the COLBY formula given hereinabove.
Fungicidal Efficacy of the Mixture of BP-4+AP-4 (1 Day Residual) Against Uncinula necator on Vines
The tank mixes were obtained from technical material of BP-4 and AP-4. The active ingredients, the type of formulations, the observed and expected efficacies with different rates are given in Table XVIII: […]

[4] = system: Leptosphaeria nodorum on wheat; assay: Greenhouse trial, 4 day residual, Leptosphaeria nodorum on wheat; details: Parastagonospora nodorum, 96 h, compound alone, read-out: Observed Efficacy; for pest or weed control at 4 ppm: dose rate 4 ppm; for pest or weed control at 16 ppm: dose rate 16 ppm; for pest or weed control at 64 ppm: dose rate 64 ppm; for pest or weed control at 256 ppm: dose rate 256 ppm
How it was run: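 Wheat at full primary-leaf expansion sprayed with aqueous formulated compounds or mixtures (technical material in 5% acetone/0.05% Tween 20) to near run-off or at 200 l/ha, inoculated 4 days later with spore suspension and held 1-2 days in a moist chamber. Percent diseased leaf area scored about 7 days post-inoculation, excluding leaf tips and bases; synergy judged by Colby formula.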

[5] = system: Pyrenophora teres on barley; assay: Greenhouse trial, 4 day residual, Pyrenophora teres on barley; details: Pyrenophora teres, 96 h, 4 day residual, read-out: Observed Efficacy; for pest or weed control at 0.4 ppm: dose rate 0.4 ppm; for pest or weed control at 2 ppm: dose rate 2 ppm; for pest or weed control at 10 ppm: dose rate 10 ppm; for pest or weed control at 50 ppm: dose rate 50 ppm
[6] = system: Blumeria graminis f. sp. tritici on wheat; assay: Greenhouse trial, 2 day curative, Blumeria graminis f. sp. tritici on wheat; details: Table XVII, compound alone
Protocol: as §1, §2, §3, §4, §5, §6, §7, §8
Fungicidal Efficacy of the Mixture of Different Benzophenones+Metconazole (2 Day Curative) Against Blumeria graminis f. sp. tritici on Wheat
The tank mixes were obtained from technical material of the benzophenones BP-2 and BP-4 and metconazole.

[7] = Table XV (Example 15), 4 day residual
[8] = Table XIV (Example 14), 4 day residual

Which results are given for COc1cc(C)c(C(=O)c2c(OC)ccc(Br)c2C)c(OC)c1OC [BP-4, 5-bromo-2′,6-dimethyl-2,4′,5′,6′-tetramethoxybenzophenone]?
pest or weed control at 4 ppm ([1]; Table IX, compound alone): 6%; pest or weed control at 16 ppm ([1]; Table IX, compound alone): 4%; pest or weed control at 64 ppm ([1]; Table IX, compound alone): 16%; pest or weed control at 256 ppm ([1]; Table IX, compound alone): 38%; pest or weed control at 4 ppm ([1]; Table VII, compound alone): 0%; pest or weed control at 16 ppm ([1]; Table VII, compound alone): 0%; pest or weed control at 64 ppm ([1]; Table VII, compound alone): 0%; pest or weed control at 256 ppm ([1]; Table VII, compound alone): 13%; pest or weed control at 0.4 ppm ([1]; Table XII, compound alone): 2%; pest or weed control at 2 ppm ([1]; Table XII, compound alone): 7%; pest or weed control at 10 ppm ([1]; Table XII, compound alone): 10%; pest or weed control at 50 ppm ([1]; Table XII, compound alone): 31%; pest or weed control at 0.4 ppm [1, 7]: 0%; pest or weed control at 2 ppm [1, 7]: 0%; pest or weed control at 10 ppm [1, 7]: 6%; pest or weed control at 50 ppm [1, 7]: 12%; pest or weed control at 1 ppm ([2]; Table VI, compound alone, dose rate 1 ppm): 1%; pest or weed control at 4 ppm ([2]; Table VI, compound alone, dose rate 4 ppm): 6%; pest or weed control at 16 ppm ([2]; Table VI, compound alone, dose rate 16 ppm): 51%; pest or weed control at 64 ppm ([2]; Table VI, compound alone, dose rate 64 ppm): 100%; pest or weed control at 0.4 ppm ([2]; Table XI, compound alone): 0%; pest or weed control at 2 ppm ([2]; Table XI, compound alone): 2%; pest or weed control at 10 ppm ([2]; Table XI, compound alone): 55%; pest or weed control at 50 ppm ([2]; Table XI, compound alone): 96%; pest or weed control at 0.4 ppm [2, 8]: 0%; pest or weed control at 2 ppm [2, 8]: 0%; pest or weed control at 10 ppm [2, 8]: 13%; pest or weed control at 50 ppm [2, 8]: 97%; Observed Efficacy ([3]; dose rate 0.25 ppm): 0%; Observed Efficacy ([3]; dose rate 0.5 ppm): 21%; Observed Efficacy ([3]; dose rate 1 ppm): 28%; Observed Efficacy ([3]; dose rate 2 ppm): 9%; Observed Efficacy ([3]; dose rate 4 ppm): 43%; Observed Efficacy ([3]; dose rate 8 ppm): 42%; pest or weed control at 4 ppm ([4]; Table VIII): 0%; pest or weed control at 16 ppm ([4]; Table VIII): 0%; pest or weed control at 64 ppm ([4]; Table VIII): 14%; pest or weed control at 256 ppm ([4]; Table VIII): 34%; pest or weed control at 4 ppm ([4]; Table X): 0%; pest or weed control at 16 ppm ([4]; Table X): 10%; pest or weed control at 64 ppm ([4]; Table X): 18%; pest or weed control at 256 ppm ([4]; Table X): 44%; pest or weed control at 0.4 ppm ([5]; Table XIII (Example 13)): 0%; pest or weed control at 2 ppm ([5]; Table XIII (Example 13)): 0%; pest or weed control at 10 ppm ([5]; Table XIII (Example 13)): 34%; pest or weed control at 50 ppm ([5]; Table XIII (Example 13)): 58%; pest or weed control at 0.4 ppm ([5]; Table XVI (Example 16)): 0%; pest or weed control at 2 ppm ([5]; Table XVI (Example 16)): 0%; pest or weed control at 10 ppm ([5]; Table XVI (Example 16)): 0%; pest or weed control at 50 ppm ([5]; Table XVI (Example 16)): 11%; Observed Efficacy ([6]; dose rate 0.67 ppm): 9%; Observed Efficacy ([6]; dose rate 2 ppm): 27%; Observed Efficacy ([6]; dose rate 6 ppm): 42%; Observed Efficacy ([6]; dose rate 18 ppm): 78%; Observed Efficacy ([6]; dose rate 54 ppm): 92%

Source: US6346535B1, “Fungicidal mixtures” (American Cyanamid Company, priority 1999, dated 2002)
